Laboratory results from the CombiSolv-Exp solvation set (Vermeire and Green 2021).

Test: solvent given as SMILES
[1] = in CCCCCCCCC=CCCCCCCCC(=O)OCC(COC(=O)CCCCCCCC=CCCCCCCCC)OC(=O)CCCCCCCC=CCCCCCCCC

In the case of `CN(C)CCC=C1c2ccccc2CCc2ccccc21`, the “solvation free energy, 298 K” value (in O) is reported as -7.43 kcal/mol.

With `Nc1ccc(S(=O)(=O)Nc2ccccn2)cc1` the “solvation free energy, 298 K” value (in O) was -18.7 kcal/mol.

With `CCCCOC` the “solvation free energy, 298 K” value (in CCCCCl) was -4.26 kcal/mol, the “solvation free energy, 298 K” value (in ClC(Cl)(Cl)Cl) was -4.39 kcal/mol and the “solvation free energy, 298 K” value (in ClCCl) was -4.71 kcal/mol.

With `Clc1cc(Cl)c(-c2ccc(Cl)c(Cl)c2Cl)cc1Cl` the “solvation free energy, 298 K” value (in CCCCCCCCO) was -13.2 kcal/mol and the “solvation free energy, 298 K” value (in O) was -3.34 kcal/mol.

In the case of `O=C(O)CCCCc1ccccc1`, the “solvation free energy, 298 K” value (in O) is reported as -8.68 kcal/mol.

For `Br`, the “solvation free energy, 298 K” value (in CCCC) was -1.23 kcal/mol, the “solvation free energy, 298 K” value (in CCCCCC) was -1.19 kcal/mol and the “solvation free energy, 298 K” value (in CCCCCCCC) was -1.11 kcal/mol. For the same compound, the “solvation free energy, 298 K” value (in CCCCCCCCCC) was -1.09 kcal/mol.

With `N#Cc1ccccc1` the “solvation free energy, 298 K” value (in CCCCCCC) was -5.33 kcal/mol, the “solvation free energy, 298 K” value (in CCCCCCCCO) was -6 kcal/mol and the “solvation free energy, 298 K” value (in O) was -4.11 kcal/mol. For the same compound, the “solvation free energy, 298 K” value (in [2H]O[2H]) was -3.82 kcal/mol.

In the case of `CCCCCC(C)O` (configuration not stated), the “solvation free energy, 298 K” value (in O) is reported as -3.88 kcal/mol.

With `CCOC(=O)OCC` the “solvation free energy, 298 K” value (in COC(C)(C)C) was -5.35 kcal/mol, the “solvation free energy, 298 K” value (in ClC(Cl)(Cl)Cl) was -5.78 kcal/mol and the “solvation free energy, 298 K” value (in O) was -3.28 kcal/mol.

In the case of `Cc1ccccc1O`, the “solvation free energy, 298 K” value (in CC(C)CC(C)(C)C) is reported as -5.68 kcal/mol and the “solvation free energy, 298 K” value (in O) is reported as -5.85 kcal/mol.

In the case of `CC(C)N(N=O)C(C)C`, the “solvation free energy, 298 K” value (in CC(C)CC(C)(C)C) is reported as -6.07 kcal/mol and the “solvation free energy, 298 K” value (in O) is reported as -5.16 kcal/mol.

With `Cn1cccc1` the “solvation free energy, 298 K” value (in O) was -2.89 kcal/mol.

For `Oc1cccc(O)c1`, the “solvation free energy, 298 K” value (in CCCCCC) was -5.78 kcal/mol, the “solvation free energy, 298 K” value (in CCCCCCC) was -5.84 kcal/mol and the “solvation free energy, 298 K” value (in CCCCCCCC) was -5.85 kcal/mol. The “solvation free energy, 298 K” value (in Cc1ccc(C)cc1) was -8.35 kcal/mol, the “solvation free energy, 298 K” value (in Cc1cccc(C)c1) was -8.33 kcal/mol and the “solvation free energy, 298 K” value (in Cc1ccccc1C) was -8.33 kcal/mol. The “solvation free energy, 298 K” value (in O) was -11.4 kcal/mol.

For `CN1CCCC1c1cccnc1` (configuration not stated), the “solvation free energy, 298 K” value (in O) was -7.98 kcal/mol.

In the case of `C=C(C)C(=O)OC`, the “solvation free energy, 298 K” value (in O) is reported as -2.53 kcal/mol.

For `FC(F)(F)Cl`, the “solvation free energy, 298 K” value (in CCCCCCC) was -0.6 kcal/mol, the “solvation free energy, 298 K” value (in CCCCCCCC) was -0.53 kcal/mol and the “solvation free energy, 298 K” value (in CCCCCCCC(=O)OCC(COC(=O)CCCCCCC)OC(=O)CCCCCCC) was -0.03 kcal/mol. For the same compound, the “solvation free energy, 298 K” value (in CCCCCCCCC) was -0.46 kcal/mol, the “solvation free energy, 298 K” value (in CCCCCCCCO) was -0.06 kcal/mol and the “solvation free energy, 298 K” value (in CN1CCCC1=O) was 0.23 kcal/mol. The “solvation free energy, 298 K” value (in CN(C)C=O) was 0.08 kcal/mol, the “solvation free energy, 298 K” value (in ClC(Cl)(Cl)Cl) was -0.6 kcal/mol and the “solvation free energy, 298 K” value (in O) was 2.31 kcal/mol.

For `CCCCCCl`, the “solvation free energy, 298 K” value (in C1CCOC1) was -5.67 kcal/mol, the “solvation free energy, 298 K” value (in C1CCOCC1) was -5.23 kcal/mol and the “solvation free energy, 298 K” value (in C1COCCO1) was -4.94 kcal/mol. The “solvation free energy, 298 K” value (in C=CCCCCCCCCCCCCCC) was -4.46 kcal/mol, the “solvation free energy, 298 K” value (in CC(C)=O) was -4.86 kcal/mol and the “solvation free energy, 298 K” value (in CCCCCC) was -4.76 kcal/mol. For the same compound, the “solvation free energy, 298 K” value [1] was -4.62 kcal/mol, the “solvation free energy, 298 K” value (in CCCCCCCCCCCCCCCC) was -4.39 kcal/mol and the “solvation free energy, 298 K” value (in CCCCOCCCC) was -4.79 kcal/mol. For the same compound, the “solvation free energy, 298 K” value (in O) was -0.06 kcal/mol.

For `CCOC(C)=O`, the “solvation free energy, 298 K” value (in Brc1cccc2ccccc12) was -3.95 kcal/mol, the “solvation free energy, 298 K” value (in C1CCOC1) was -4.56 kcal/mol and the “solvation free energy, 298 K” value (in C1COCCO1) was -4.49 kcal/mol. The “solvation free energy, 298 K” value (in C=CCCCCCCCCCCCCCC) was -3.23 kcal/mol, the “solvation free energy, 298 K” value (in CC(=O)N(C)C) was -4.23 kcal/mol and the “solvation free energy, 298 K” value (in CC(=O)OCc1ccccc1) was -4.29 kcal/mol. The “solvation free energy, 298 K” value (in CC(C)CC(C)(C)C) was -3.53 kcal/mol, the “solvation free energy, 298 K” value (in CC(C)CCCC(C)CCCC(C)CCCCC(C)CCCC(C)CCCC(C)C) was -3.2 kcal/mol and the “solvation free energy, 298 K” value (in CC(C)O) was -3.9 kcal/mol. For the same compound, the “solvation free energy, 298 K” value (in CCC(C)=O) was -4.49 kcal/mol, the “solvation free energy, 298 K” value (in CCCC=O) was -4.49 kcal/mol and the “solvation free energy, 298 K” value (in CCCCC(CC)COC(=O)CCCCC(=O)OCC(CC)CCCC) was -3.73 kcal/mol. For the same compound, the “solvation free energy, 298 K” value (in CCCCCC) was -3.61 kcal/mol, the “solvation free energy, 298 K” value (in CCCCCC=CCC=CCCCCCCCC(=O)O) was -3.67 kcal/mol and the “solvation free energy, 298 K” value (in CCCCCCC) was -3.53 kcal/mol. For the same compound, the “solvation free energy, 298 K” value (in CCCCCCCC) was -3.4 kcal/mol, the “solvation free energy, 298 K” value [1] was -3.72 kcal/mol and the “solvation free energy, 298 K” value (in CCCCCCCCCC) was -3.28 kcal/mol. The “solvation free energy, 298 K” value (in CCCCCCCCCCCCCC) was -3.24 kcal/mol, the “solvation free energy, 298 K” value (in CCCCCCCCCCCCCCCC) was -3.23 kcal/mol and the “solvation free energy, 298 K” value (in CCCCCCCCO) was -3.69 kcal/mol. The “solvation free energy, 298 K” value (in CCCCCO) was -3.87 kcal/mol, the “solvation free energy, 298 K” value (in CCCCCl) was -4.32 kcal/mol and the “solvation free energy, 298 K” value (in CCCCN(C=O)CCCC) was -3.96 kcal/mol. For the same compound, the “solvation free energy, 298 K” value (in CCCCO) was -3.97 kcal/mol, the “solvation free energy, 298 K” value (in CCO) was -4.06 kcal/mol and the “solvation free energy, 298 K” value (in CCOC(=O)c1ccccc1C(=O)OCC) was -3.94 kcal/mol. The “solvation free energy, 298 K” value (in CCOCCO) was -4.14 kcal/mol, the “solvation free energy, 298 K” value (in CCOP(=O)(OCC)OCC) was -4.13 kcal/mol and the “solvation free energy, 298 K” value (in CN1CCCC1=O) was -4.16 kcal/mol. The “solvation free energy, 298 K” value (in CN1CCCCC1=O) was -4.16 kcal/mol, the “solvation free energy, 298 K” value (in CN1CCN(C)C1=O) was -3.98 kcal/mol and the “solvation free energy, 298 K” value (in CN(C)C=O) was -4.32 kcal/mol. For the same compound, the “solvation free energy, 298 K” value (in CNC(C)=O) was -4.04 kcal/mol, the “solvation free energy, 298 K” value (in CO) was -4.38 kcal/mol and the “solvation free energy, 298 K” value (in COP(=O)(OC)OC) was -4.28 kcal/mol. For the same compound, the “solvation free energy, 298 K” value (in CS(C)=O) was -3.88 kcal/mol, the “solvation free energy, 298 K” value (in Cc1ccc(C)cc1) was -4.21 kcal/mol and the “solvation free energy, 298 K” value (in Cc1cccc(C)c1) was -4.15 kcal/mol. For the same compound, the “solvation free energy, 298 K” value (in ClCCCl) was -4.71 kcal/mol, the “solvation free energy, 298 K” value (in ClCCl) was -5.22 kcal/mol and the “solvation free energy, 298 K” value (in Clc1ccccc1) was -4.43 kcal/mol. The “solvation free energy, 298 K” value (in NC=O) was -3.61 kcal/mol, the “solvation free energy, 298 K” value (in O) was -2.95 kcal/mol and the “solvation free energy, 298 K” value (in O=C1CCCCC1) was -4.33 kcal/mol. The “solvation free energy, 298 K” value (in O=CN1CCOCC1) was -3.89 kcal/mol, the “solvation free energy, 298 K” value (in OCCOCCO) was -3.53 kcal/mol and the “solvation free energy, 298 K” value (in [2H]O[2H]) was -3.02 kcal/mol. The “solvation free energy, 298 K” value (in c1ccc2ncccc2c1) was -4.07 kcal/mol.

For `O=[N+]([O-])c1cccc2ccccc12`, the “solvation free energy, 298 K” value (in CC(C)(C)O) was -9.71 kcal/mol, the “solvation free energy, 298 K” value (in CC(C)CC(C)(C)C) was -9.18 kcal/mol and the “solvation free energy, 298 K” value (in CC(C)CCO) was -9.67 kcal/mol. For the same compound, the “solvation free energy, 298 K” value (in CC(C)CO) was -9.55 kcal/mol, the “solvation free energy, 298 K” value (in CC(C)O) was -9.78 kcal/mol and the “solvation free energy, 298 K” value (in CC(C)OC(C)C) was -10.4 kcal/mol. For the same compound, the “solvation free energy, 298 K” value (in CCC(C)O) was -9.94 kcal/mol, the “solvation free energy, 298 K” value (in CCCC(C)O) was -9.83 kcal/mol and the “solvation free energy, 298 K” value (in CCCCC(CC)CO) was -9.76 kcal/mol. The “solvation free energy, 298 K” value (in CCCCCC) was -9.35 kcal/mol, the “solvation free energy, 298 K” value (in CCCCCCC) was -9.37 kcal/mol and the “solvation free energy, 298 K” value (in CCCCCCCC) was -9.38 kcal/mol. The “solvation free energy, 298 K” value (in CCCCCCCCCC) was -9.39 kcal/mol, the “solvation free energy, 298 K” value (in CCCCCCCCCCO) was -9.94 kcal/mol and the “solvation free energy, 298 K” value (in CCCCCCCCO) was -9.98 kcal/mol. The “solvation free energy, 298 K” value (in CCCCCCCO) was -9.98 kcal/mol, the “solvation free energy, 298 K” value (in CCCCCCO) was -10 kcal/mol and the “solvation free energy, 298 K” value (in CCCCCO) was -9.99 kcal/mol. The “solvation free energy, 298 K” value (in CCCCO) was -9.97 kcal/mol, the “solvation free energy, 298 K” value (in CCCCOCCCC) was -10.2 kcal/mol and the “solvation free energy, 298 K” value (in CCCO) was -9.99 kcal/mol. For the same compound, the “solvation free energy, 298 K” value (in CCO) was -10.1 kcal/mol, the “solvation free energy, 298 K” value (in CCOCC) was -11 kcal/mol and the “solvation free energy, 298 K” value (in COC(C)(C)C) was -10.9 kcal/mol. The “solvation free energy, 298 K” value (in O) was -5.65 kcal/mol.
